Data on three molecules can be found in US20260158005A1, “A SALT-BASED ANTIFUNGAL POWDER PLATFORM FORMULATION FOR AEROSOLIZATION” (AGENCY FOR SCIENCE, TECHNOLOGY AND RESEARCH, priority 2021, published 2026).

Each structure is given as a SMILES string. Values after ≈ are worked out from the molar mass of the structure shown.

The nature of data set [1]: In vitro aerosol performance: Fine Particle Fraction (FPF) of the powder. The class given is physicochemical. As to conditions: Table 5; optimized platform formulation (sodium sulfate 5% w/w, L-leucine 30% w/w, spray dry) vs unformulated. From the text: The responses were Fine Particle Fraction (FPF) and Anti-fungal Activity (MIC—Minimum Inhibitory Concentration) (Table 2), while the tested pathogen was Candida albicans.
The FPF was influenced mainly by the type of salt excipient (i.e., parameter A; Rank 1), with sodium sulfate as one of the preferred options. The optimum results for all the parameters are: A6, B1, C1, D3.
Letters A, B, C and D represent the experimental parameters and corresponding levels.

The test system of another data set is Candida albicans. Briefly: Antifungal activity (MIC, Minimum Inhibitory Concentration). The class given is cell-based. To be noted: for MIC: Candida albicans, Table 5, optimized platform formulation vs unformulated. The source says:
The responses were Fine Particle Fraction (FPF) and Anti-fungal Activity (MIC—Minimum Inhibitory Concentration) (Table 2), while the tested pathogen was Candida albicans. The antifungal activity was influenced mainly by the type of salt excipient as well (i.e. parameter A; Rank 1), with sodium sulfate as one of the preferred options. The optimum results for all the parameters are: A6, B1, C3, D3.

In general, MIC refers to the lowest concentration found to suppress growth. A low value points to greater potency. For `C[C@@H](c1ncncc1F)[C@](O)(Cn1cncn1)c1ccc(F)cc1F` [C, Voriconazole], the “FPF (%)” value in data set [1] is given as 3.5 ± 0.3%. This molecule displayed a minimum inhibitory concentration (MIC) in the data set on Candida albicans below 0.03 µg/mL.
Take `CCC(C)n1ncn(-c2ccc(N3CCN(c4ccc(OCC5COC(Cn6cncn6)(c6ccc(Cl)cc6Cl)O5)cc4)CC3)cc2)c1=O` (stereo not drawn) [B, Itraconazole]: the MIC in the data set on Candida albicans is below 0.03 µg/mL.
`OC(Cn1cncn1)(Cn1cncn1)c1ccc(F)cc1F` [A, Fluconazole]: the “FPF (%)” value in data set [1] turned out to be 2.6 ± 0.1%. The MIC in the data set with Candida albicans turned out to be 0.25 µg/mL (≈ 0.816 µM). Further, the “improvement in antifungal activity” value in the data set with Candida albicans (formulated using the platform technology vs unformulated) is “approximately 4 times”.
